Laboratory results reported in article PMC5077133, “Towards Development of Small Molecule Lipid II Inhibitors as Novel Antibiotics” (PLoS ONE, 2016).

How the values were obtained:
[1] = Lipid II binding by Surface Plasmon Resonance; conditions: SPR, immobilized 3-Lipid II, 25°C
Experimental: Short-chain water-soluble Lipid II containing a lipid tail of three isoprene units was generated and purified essentially as described. Typically, M. flavus vesicles (120 μmol lipid-Pi) were incubated together with 500 μmol UDP-GlcNAc, 500 μmol UDP-MurNAC-pentapeptide and 400 μmol farnesyl phosphate in 100 mM Tris-HCl pH 8.0, 5 mM MgCl2. The incubation lasted two hours at room temperature for 3-P. The synthesis of 3-Lipid II was followed using RP-8 reversed phase TLC (Merck) developed in 75% methanol. For purification, the membranes were removed by centrifugation at 40,000 x g and the supernatant was collected and loaded on a C18 HPLC column and eluted with a linear gradient from 50 mM ammonium bicarbonate to 100% methanol in 30 minutes. Farnesyl-Lipid II (3-Lipid II) eluted at approximately 60% methanol. Its identity was confirmed by mass spectroscopy. Surface Plasmon Resonance binding experiments were carried out on a BIAcore T100 system (BIAcore Inc., Piscataway, NY) at 25°C. The assay buffer was 10 mM HEPES, 150 mM NaCl, 0.05% surfactant P20, pH 7.4 (± 3 mM EDTA) supplemented with 10% DMSO. 3-Lipid II (50 RUs) was immobilized on CM5 sensor chips using the amine-coupling chemistry recommended by the manufacturer. For initial determination of binding, compounds were introduced into the flow-cells (30 μl/min) in the running buffer at 10 μM. Resonance signals were corrected for nonspecific binding by subtracting the background of the control flow-cell. After each analysis, the sensor chip surfaces were regenerated with 50 mM NaOH for 30 s at a flow rate 100 μl/min, and equilibrated with the buffer prior to next injection. For binding kinetics studies, binding isotherms were analyzed with manufacturer-supplied software for BIAcore T100.

A. baumanii ATCC 19606 = test: Antibacterial activity (MIC, broth dilution); format: cell-based, Acinetobacter baumanii; conditions: CLSI, in µg/mL
Description: Staphylococcus aureus ATCC 29213, Escherichia coli ATCC 25922, Enterococcus faecalis ATCC 29212, Streptococcus pneumonia ATCC 49619 and Acinetobacter baumanii ATCC 19606 were obtained from Microbiologics (St. Cloud, MN). E. faecalis ATCC 51575, ATCC 51299 and REMEL C99707 and E. faecium ATCC 51559 (MDR), REMEL IH79985 and REMEL C110914 were generously provided by the Laboratory of Pathology, University of Maryland Baltimore School of Medicine. Unless stated otherwise, chemicals and reagents were purchased from Sigma.
(§1) Determination of the Minimal Inhibitory Concentrations (MIC) by dilution was carried out by broth dilution according to CLSI standards.

E. cloacae ATCC 13047 = test: Antibacterial activity (MIC, broth dilution); format: cell-based; conditions: CLSI
Experimental: as §1

[2] = tested on: K. pneumoniae NR-15410 (KPC); test: Antibacterial activity (MIC, broth dilution); format: cell-based; conditions: CLSI
Experimental: as §1

[3] = tested on: S. aureus HFH-30123 (MRSA); test: Antibacterial activity (MIC, broth dilution); format: cell-based; conditions: CLSI
Experimental: as §1

P. aeruginosa PA01 = test: Antibacterial activity (MIC, broth dilution); format: cell-based; conditions: CLSI
Experimental: as §1

[4] = tested on: K. pneumoniae NR-15411 (KPC); test: Antibacterial activity (MIC, broth dilution); format: cell-based; conditions: CLSI
Experimental: as §1

E. aerogenes ATCC 13048 = test: Antibacterial activity (MIC, broth dilution); format: cell-based; conditions: CLSI
Experimental: as §1

P. aeruginosa X13273 = test: Antibacterial activity (MIC, broth dilution); format: cell-based; conditions: CLSI, in µg/mL
Experimental: as §1

S. aureus MRSA 1094 = test: Antibacterial activity (MIC, broth dilution); format: cell-based; conditions: CLSI
Experimental: as §1

E. faecium EF1509 (VRE) = test: Antibacterial activity (MIC, broth dilution); format: cell-based; conditions: CLSI, in µg/mL
Experimental: as §1

E. faecium F118 (VRE) = test: Antibacterial activity (MIC, broth dilution); format: cell-based; conditions: CLSI, in µg/mL
Experimental: as §1

P. aeruginosa ATCC 27853 = test: Antibacterial activity (MIC, broth dilution); format: cell-based; conditions: CLSI
Experimental: as §1

HeLa cells = test: Cytotoxicity against mammalian cells (MTS assay); format: cell-based
Experimental: The cytotoxicity concentration of antibacterial compounds that produces half maximal decrease in viability (CC50) against mammalian cells (HeLa, ATCC CCL-2.2) was determined as described. The effect of compounds on HeLa cell viability was assessed in triplicate by measuring the mitochondrial activity using MTS assays according to the manufacturer’s instructions (Cell Titer 96 proliferation assay, Promega). The cells were incubated for 72 hours in RPMI1640 medium containing the compounds at final concentrations ranging from 64 to 0.125 μg/ml. CC50 was determined using a standard curve of serially diluted untreated cells in each experiment.

| Compound | Kd [1] [µM] | Antibacterial activity (MIC) A. baumanii ATCC 19606 (A. baumanii ATCC 19606) | Antibacterial activity (MIC) E. cloacae ATCC 13047 (E. cloacae ATCC 13047) [µg/mL] | Antibacterial activity (MIC) K. pneumoniae NR-15410 (KPC) [2] [µg/mL] | Antibacterial activity (MIC) S. aureus HFH-30123 (MRSA) [3] [µg/mL] | Antibacterial activity (MIC) P. aeruginosa PA01 (P. aeruginosa PA01) [µg/mL] | Antibacterial activity (MIC) K. pneumoniae NR-15411 (KPC) [4] [µg/mL] | Antibacterial activity (MIC) E. aerogenes ATCC 13048 (E. aerogenes ATCC 13048) [µg/mL] | Antibacterial activity (MIC) P. aeruginosa X13273 (P. aeruginosa X13273) | Antibacterial activity (MIC) S. aureus MRSA 1094 (S. aureus MRSA 1094) [µg/mL] | Antibacterial activity (MIC) E. faecium EF1509 (VRE) (E. faecium EF1509 (VRE)) | Antibacterial activity (MIC) E. faecium F118 (VRE) (E. faecium F118 (VRE)) | Antibacterial activity (MIC) P. aeruginosa ATCC 27853 (P. aeruginosa ATCC 27853) [µg/mL] | CC50% (72 h HeLa cells) (HeLa cells) | Lipid II binding Kd [1] |
| --- | --- | --- | --- | --- | --- | --- | --- | --- | --- | --- | --- | --- | --- | --- | --- |
| CCc1ccc(-c2cc(/C=C/C=C/c3ccc(N(C)C)cc3)[o+]c(-c3ccc(CC)cc3)c2)cc1.F[B-](F)(F)F [6jc64-2] | 23.8 ± 4 | >=64 | ≥ 64 | ≥ 64 | 8 | ≥ 64 | ≥ 64 | ≥ 64 | >=64 | 8 | 5.66 | 16 | ≥ 64 | <.78125 |  |
| Cc1cc(/C=C/c2ccc(N(C)C)cc2)cc(C)[o+]1.F[B-](F)(F)F [6jc37] |  | >=64 | ≥ 64 | ≥ 64 | 16 | ≥ 64 | ≥ 64 | ≥ 64 | >=64 | 16 | 64 | 64 | ≥ 64 | 18.96 | No |
| CCc1ccc(-c2cc(/C=C/c3cc4c5c(c3)CCCN5CCC4)[o+]c(-c3ccc(CC)cc3)c2)cc1.F[B-](F)(F)F [6jc-69-1] | 16.1 ± 0.3 | 32 | ≥ 64 | ≥ 64 | 2 | ≥ 64 | ≥ 64 | ≥ 64 | >=64 | 2 | 2 | 2 | ≥ 64 | <.78125 |  |
| Cn1cc(/C=C/c2cc(-c3ccc(C(C)(C)C)cc3)cc(-c3ccc(C(C)(C)C)cc3)[o+]2)c2ccccc21.F[B-](F)(F)F [6jc66-3] | 60 ± 11 | >=64 | ≥ 64 | ≥ 64 | 8 | ≥ 64 | ≥ 64 | ≥ 64 | >=64 | 8 | 4 | 11.31 | ≥ 64 | 5.68 |  |
| CN(C)c1ccc(/C=C/c2cc(-c3ccccc3)cc(-c3ccccc3)[o+]2)cc1.F[B-](F)(F)F [6jc39] | 39 ± 4 | 16 | ≥ 64 | 64 | 4 | ≥ 64 | ≥ 64 | ≥ 64 | >=64 | 2 | 4 | 4 | ≥ 64 | 1.31 |  |
| CCc1ccc(-c2cc(/C=C/c3c[nH]c4ccccc34)[o+]c(-c3ccc(CC)cc3)c2)cc1.F[B-](F)(F)F [6jc64-3] | 4.92 ± 0.5 | >=64 | 64 | 64 | 4 | ≥ 64 | 64 | ≥ 64 | >=64 | 5.66 | 8 | 8 | ≥ 64 | 3.29 |  |
| C(=C\c1c[nH]c2ccccc12)/c1cc(-c2ccccc2)cc(-c2ccccc2)[o+]1.F[B-](F)(F)F [Jc-49-1] | 0.17 ± 0.05 | >=64 | ≥ 64 | ≥ 64 | 8 | ≥ 64 | ≥ 64 | ≥ 64 | >=64 | 8 | 16 | 16 | ≥ 64 | 2.2 |  |
| Clc1ccc(-c2cc(/C=C/c3cc4c5c(c3)CCCN5CCC4)[o+]c(-c3ccc(Cl)cc3)c2)cc1.F[B-](F)(F)F [6jc-69-4] | 30.3 ± 0.5 | >=64 | ≥ 64 | ≥ 64 | 8 | ≥ 64 | ≥ 64 | ≥ 64 | >=64 | 8 | 4 | 5.66 | ≥ 64 | 3.09 |  |
| CN(C)c1ccc(/C=C/c2cc(-c3ccc(Cl)cc3)cc(-c3ccc(Cl)cc3)[o+]2)cc1.F[B-](F)(F)F [6jc41-1] | 34 ± 4 | >=64 | ≥ 64 | ≥ 64 | 32 | ≥ 64 | ≥ 64 | ≥ 64 | >=64 | 16 | 22.63 | 8 | ≥ 64 | >32 |  |
| Cc1ccc(-c2cc(/C=C/c3cc4c5c(c3)CCCN5CCC4)[o+]c(-c3ccc(C)c(C)c3)c2)cc1C.F[B-](F)(F)F [6jc-69-3] | 0.6 ± 0.1 | >=64 | ≥ 64 | ≥ 64 | 4 | ≥ 64 | ≥ 64 | ≥ 64 | >=64 | 4 | 2.83 | 4 | ≥ 64 | <.78125 |  |
